For data set [1], the system named is Mus musculus. The data set is described as follows: Tmax in mice at 25 uM/kg i.p. administration. The format is functional, organism-based.
Data set [2] concerns Mus musculus. The data set can be described thus: Mean-residence time was determined for compound after intraperitoneal administration in mice at 25 uM/kg. In kind it is functional, organism-based.
For data set [3], the system named is Mus musculus. The data set can be described thus: Half life after intraperitoneal administration in mice at 25 uM/kg. The format is functional, organism-based.
A short description of data set [4]: Cmax in mice at 25 umol/kg i.p. administration. As to conditions: mouse, in vivo, ip. Set-up: dose 25 umol/kg, route intraperitoneal. The format is ADME, organism-based.
In data set [5] the test system is Mus musculus. The data set is described as follows: Area under curve was determined for compound after intraperitoneal administration in mice at 25 uM/kg. In kind it is functional, organism-based.
The species entered for data set [6] is Mus musculus.
Description: Percentage of compound bound to serum protein was determined
For data set [7], the system named is Mus musculus. The data set can be described thus: Mean-residence time was determined for compound after intraperitoneal administration in mice at 26 uM/kg. In kind it is functional, organism-based.
The test system of data set [8] is Mus musculus. The data set is described as follows: Half life after intraperitoneal administration in mice at 26 uM/kg. The format is functional, organism-based.
The nature of data set [9]: Cmax in mice at 26 umol/kg i.p. administration. The format is ADME, organism-based. Also noted: dose 26 umol/kg, route intraperitoneal. To be noted: mouse, in vivo, ip.
Data set [10] has as its system Mus musculus. The data set is described as follows: Area under curve was determined for compound after intraperitoneal administration in mice at 26 uM/kg. In kind it is functional, organism-based.
The species entered for data set [11] is Mus musculus. The data set is described as follows: Log cell kill for A2780 tumor in mice. The format is functional.
The species named for data set [12] is Mus musculus. The source holds these as a separate data set.
Description: Maximum tolerated dose in A2780 tumor in mice after intraperitoneal administration daily for 8 days
Data set [13] deals with P388.
Description: Increase in life span of the treated mice to those of control was determined
Data set [14] relates to P388. This is another data set of the same source.
Description: Maximum tolerated dose was determined against P338 tumor in mice after intraperitoneal administration daily for 7 days
For data set [15], the target named is Cyclin-dependent kinase 2/cyclin E (Homo sapiens, UniProt P24941).
Data set [16] has as its system Mus musculus. The data set is described as follows: Tmax in mice at 18 uM/kg i.p. administration. In kind it is functional, organism-based.
In data set [17] the test system is Mus musculus. The data set is described as follows: Mean-residence time was determined for compound after intraperitoneal administration in mice at 18 uM/kg. The format is functional, organism-based.
Data set [18] has as its system Mus musculus. The data set can be described thus: Half life after intraperitoneal administration in mice at 18 uM/kg. The format is functional, organism-based.
Data set [19] concerns Mus musculus. The data set can be described thus: Area under curve was determined for compound after intraperitoneal administration in mice at 18 uM/kg. The format is functional, organism-based.
Data set [20] is described as follows: Cmax in mice at 18 umol/kg i.p. administration. In kind it is ADME, organism-based. Also noted: dose 18 umol/kg, route intraperitoneal. To be noted: mouse, in vivo, ip.
Data set [21] deals with Mus musculus. The data set is described as follows: Microsomal stability was determined in mouse liver microsomes after intraperitoneal administration in mice at 18 uM/kg. The format is functional. In general terms: Microsomes from liver hold many membrane-bound enzymes, among them those of drug oxidation.
Data set [22] is described as follows: Cmax in mice at 24 umol/kg i.p. administration. The format is ADME, organism-based. Set-up: dose 24 umol/kg, route intraperitoneal. As to conditions: mouse, in vivo, ip.
The subject of data set [23] is Mus musculus. The data set is described as follows: Tmax in mice at 23 uM/kg i.v. administration. In kind it is functional, organism-based.
The subject of data set [24] is Mus musculus. The data set is described as follows: Mean-residence time was determined for compound intravenous administration in mice at 23 uM/kg. The format is functional, organism-based.
In data set [25] the test system is Mus musculus. The data set can be described thus: Half life after intravenous administration in mice at 23 uM/kg. In kind it is functional, organism-based.
For data set [26], the system named is Mus musculus. The data set can be described thus: Microsomal stability was determined in mouse liver microsomes after intravenous administration in mice at 23 uM/kg. The format is functional.
Data set [27] is filed under the species Mus musculus. The data set can be described thus: Log cell kill for A2780 tumor in mice; […]. The format is functional.
Another data set in a line: in vivo. As to conditions: mouse, iv, 23 umol/kg.

Description for in vivo: Cmax in mice at 23 umol/kg i.v. administration

For the compound `CN1CCC(C(=O)Nc2ncc(SCc3ncc(C(C)(C)C)o3)s2)CC1`, the Tmax in the data set on Mus musculus [1] came out at 0.5 h. In the data set on Mus musculus [2], this compound showed an MRT of 1.1 h. Besides, the T1/2 in the data set with Mus musculus [3] was found to be 0.7 h. In addition, in data set [4], the Cmax (as a rule, the highest concentration seen after dosing) was 1100 nM. The AUC in the data set with Mus musculus [5] came to 473 ng·h/mL. The same compound had a Binding in the data set filed under Mus musculus [6] of 75%.
`CC(C)(C)c1cnc(CSc2cnc(NC(=O)C3CCN(S(C)(=O)=O)CC3)s2)o1`: in the data set filed under Mus musculus [6], the Binding is reported as 84%.
Turning to `CC(C)(C)c1cnc(CSc2cnc(NC(=O)C3CCCNC3)s2)o1` (configuration not stated), in the data set with Mus musculus [7], the MRT came out at 3.5 h. In the data set on Mus musculus [8], this compound came in with a T1/2 of 2.2 h. Moreover, the highest concentration (Cmax) in data set [9] was 3500 nM. The AUC with Mus musculus [10] turned out to be 4600 ng·h/mL. The LCK in the data set filed under Mus musculus [11] stood at 1.6. In addition, the figures for the MTD in the data set listed under Mus musculus [12] and in the data set with P388 [14] were 22 mg/kg and 20 mg/kg, respectively. In addition, the Binding in the data set listed under Mus musculus [6] turned out to be 82%. The compound also yielded a Survival with P388 [13] of 152%.
As for `CC(C)(C)c1cnc(CSc2cnc(NC(=O)[C@H]3CC[C@H](N)CC3)s2)o1`, the Binding in the data set filed under Mus musculus [6] is on record as 86%.
Regarding `CC(C)(C)c1cnc(CSc2cnc(NC(=O)C3CCCCC3)s2)o1`, in [15], the half-inhibitory concentration (IC50) (commonly the concentration needed to halve the response being measured) was found to be 300 µM.
`CC(=O)Nc1ncc(SCc2ncc(C(C)(C)C)o2)s1` returned a half-inhibitory concentration (IC50) in data set [15] of 5 µM. This compound also displayed a Binding in the data set listed under Mus musculus [6] of 83%.
Regarding `CC(C)(C)c1cnc(CSc2cnc(NC(=O)Cc3ccc(CNC(CO)CO)cc3)s2)o1`, the Tmax in the data set with Mus musculus [16] stood at 1 h. Besides, the MRT in the data set with Mus musculus [17] is 2.9 h. Also, the T1/2 with Mus musculus [18] turned out to be 1.8 h. In the data set on Mus musculus [19], the AUC was found to be 1320 ng·h/mL. Also, the concentration in data set [20] peaked (Cmax) at 800 nM. For the same compound, the Activity in the data set with Mus musculus [21] is reported as 0.22 nM min-1 (mg of protein)-1. Moreover, in the data set filed under Mus musculus [11], the LCK is listed as 3.3. In addition, the values for the MTD in the data set filed under Mus musculus [12] and with P388 [14] were 26 mg/kg and 32 mg/kg, respectively. Moreover, the Binding in the data set filed under Mus musculus [6] came to 79%. The compound further came in with a Survival with P388 [13] of 140%.
On to `CC(C)(C)OC(=O)N1CCC(C(=O)Nc2ncc(SCc3ncc(C(C)(C)C)o3)s2)CC1`, for which, in the data set filed under Mus musculus [6], the Binding was found to be 99%.
Compound `CC(C)(C)c1cnc(CSc2cnc(NC(=O)Cc3ccccc3)s2)o1` registered an IC50 in [15] of 3 µM. That is a single-digit micromolar value.
Consider `CC(C)(C)c1cnc(CSc2cnc(NC(=O)C3CCN(CCO)CC3)s2)o1`, for which, in the data set on Mus musculus [1], the Tmax is 0.5 h. In addition, the MRT in the data set with Mus musculus [2] amounted to 2.4 h. In the data set on Mus musculus [3], this compound yielded a T1/2 of 1.9 h. Further, the highest concentration (Cmax) in data set [22] came to 1100 nM. For the same compound, the AUC with Mus musculus [5] was found to be 764 ng·h/mL. The same compound showed a Binding in the data set filed under Mus musculus [6] of 75%. Further, the Survival in the data set with P388 [13] was determined as 140%. Also, in the data set on P388 [14], the MTD is 22.5 mg/kg.
In the case of `CC(C)(C)c1cnc(CSc2cnc(NC(=O)[C@H]3CC[C@@H](N)CC3)s2)o1`, the Tmax with Mus musculus [23] came out at 6 min. Also, the MRT in the data set on Mus musculus [24] was found to be 2.2 h. Also, the T1/2 in the data set with Mus musculus [25] stood at 2.2 h. In the data set on Mus musculus [19], the AUC was 4660 ng·h/mL. Besides, the Activity in the data set with Mus musculus [26] was 0.07 nM min-1 (mg of protein)-1. This compound showed an LCK in the data set filed under Mus musculus [27] of 1.7. The MTD in the data set filed under Mus musculus [12] and with P388 [14] was 8 mg/kg throughout. In the data set listed under Mus musculus [6], this compound showed a Binding of 68%. The same compound yielded a Survival in the data set on P388 [13] of 179%. The same compound gave a Cmax in “in vivo” of 13600 nM.
